Data taken from a polymer gas permeability compilation.

CH4 permeability [Barrer] | CO2 permeability [Barrer] | N2 permeability [Barrer] | O2 permeability [Barrer] | H2 permeability [Barrer] | SMILES
0.058 | 1.95 | 0.0792 | 0.61 |  | *Oc1ccc(C(=O)c2cccc(-c3cccc(C(=O)c4ccc(Oc5ccc(C(c6ccc(*)cc6)(C(F)(F)F)C(F)(F)F)cc5)cc4)c3)c2)cc1 (repeat unit)
0.79 | 39.6 | 1.2 | 7.62 |  | *c1ccc(-c2ccc(Oc3ccc(C4(c5ccc(Oc6ccc(-c7ccc(-n8c(=O)c9cc%10c(=O)n(*)c(=O)c%10cc9c8=O)cc7)cc6C(F)(F)F)cc5)c5ccccc5C(=O)N4c4ccccc4)cc3)c(C(F)(F)F)c2)cc1 (repeat unit)
0.44 | 17.8 | 0.74 | 4.74 |  | *c1cc(C(=O)OCCC(F)(F)C(F)(F)C(F)(F)C(F)(F)C(F)(F)C(F)(F)F)cc(N2C(=O)c3ccc(C(c4ccc5c(c4)C(=O)N(*)C5=O)(C(F)(F)F)C(F)(F)F)cc3C2=O)c1 (repeat unit)
2.24 | 43 | 1.73 | 9.38 |  | *Nc1c(C)cc(C(C)(C)c2cc(C)c(NC(=O)c3ccc(Oc4cc(C(C)(C)C)c(Oc5ccc(C(*)=O)cc5)cc4C(C)(C)C)cc3)c(C)c2)cc1C (repeat unit)
0.155 | 4.5 | 0.203 | 1.4 |  | *Oc1ccc2c(c1)C1(CC2(C)C)CC(C)(C)c2ccc(Oc3ccc4c(c3)C(=O)N(c3cccc(N5C(=O)c6ccc(*)cc6C5=O)c3)C4=O)cc21 (repeat unit)
0.2 | 6.56 | 0.23 | 1.46 | 15.5 | *OC1OC(OC(C)=O)C(*)C(OC(C)=O)C1OC(C)=O (repeat unit)
7.27 |  | 7.09 | 61 | 1100 | *c1cc2c(cc1*)C1(C(C)C)c3ccccc3C2(C(C)C)c2cc3c(cc21)Oc1cc2nc(*)c(*)nc2cc1O3 (repeat unit)
27800 | 35200 | 12000 | 14300 | 27000 | *C(=C(*)c1ccc2c(c1)C(C)(C)CC2(C)C)c1cccc(F)c1 (repeat unit)
0.18 | 4.3 | 0.196 | 1.1 | 15 | *Oc1ccc(Oc2ccc(Oc3ccc(S(=O)(=O)c4ccc(*)cc4)cc3)cc2)cc1 (repeat unit)
0.78 | 27.7 | 1.39 | 7.1 | 59.1 | *c1ccc(C(c2ccc(-n3c(=O)c4cc5c(=O)n(*)c(=O)c5cc4c3=O)cc2)(C(F)(F)F)C(F)(F)F)cc1 (repeat unit)
0.032 | 2.1 | 0.1 | 0.68 | 14 | *c1cccc(Oc2cccc(N3C(=O)c4ccc(C(c5ccc6c(c5)C(=O)N(*)C6=O)(C(F)(F)F)C(F)(F)F)cc4C3=O)c2)c1 (repeat unit)
0.95 | 14.3 | 1.59 | 6 |  | *Oc1c(C)cc(*)c(C(=O)c2ccccc2)c1C (repeat unit)
0.0562 | 4.85 | 0.168 | 1.22 |  | *c1ccc(Cc2ccc(N3C(=O)c4ccc(C(c5ccc6c(c5)C(=O)N(*)C6=O)(C(F)(F)F)C(F)(F)F)cc4C3=O)c(O)c2)cc1O (repeat unit)
0.22 | 15 | 0.4 | 2.56 | 21.1 | *c1ccc(Oc2ccc3ccccc3c2-c2c(Oc3ccc(N4C(=O)c5ccc(C(c6ccc7c(c6)C(=O)N(*)C7=O)(C(F)(F)F)C(F)(F)F)cc5C4=O)cc3)ccc3ccccc23)cc1 (repeat unit)
7.6 | 200 | 8.1 | 33 | 230 | *c1c(C)c(C)c(N2C(=O)c3ccc(Oc4cc(C)c(Oc5ccc6c(c5)C(=O)N(*)C6=O)c(C)c4C)cc3C2=O)c(C)c1C (repeat unit)
0.087 | 3.69 | 0.17 | 0.97 |  | *NC(=O)c1ccc(C(c2ccc(C(=O)O)c(C(=O)Nc3cc(Oc4ccc(*)c(N)c4)ccc3N)c2)(C(F)(F)F)C(F)(F)F)cc1C(=O)O (repeat unit)

CH4 permeability [Barrer] | CO2 permeability [Barrer] | N2 permeability [Barrer] | O2 permeability [Barrer] | H2 permeability [Barrer] | SMILES
3000 | 8000 | 1100 | 2000 | 3700 | *C(=C(*)c1ccc2c(c1)C(C)(C)c1cc(Br)ccc1-2)c1ccccc1 (repeat unit)
47.8 | 261 | 19 | 47.6 | 92.7 | *CC(*)C(=O)OCCCCCCCCCC (repeat unit)
3.36 | 85.1 | 4.47 | 22.1 | 149 | *Oc1c(Br)cc(C(c2cc(Br)c(OC(=O)c3cc(C(*)=O)cc(C(C)(C)C)c3)c(Br)c2)(C(F)(F)F)C(F)(F)F)cc1Br (repeat unit)
0.4 | 13 | 0.59 | 2.94 |  | *c1ccc(N(c2ccc(N3C(=O)c4ccc(C(c5ccc6c(c5)C(=O)N(*)C6=O)(C(F)(F)F)C(F)(F)F)cc4C3=O)cc2)c2ccc(N(c3ccc(OC)cc3)c3ccc(OC)cc3)cc2)cc1 (repeat unit)
0.6 | 13.2 | 0.571 | 3.2 |  | *Oc1c(C)cc(C(C)(C)c2ccc(C(C)(C)c3cc(C)c(Oc4ccc(S(=O)(=O)c5ccc(*)cc5)cc4)c(C)c3)cc2)cc1C (repeat unit)
129 | 1520 | 65 | 208 | 624 | *c1ccc2c(c1)C1(CC2(C)C)CC(C)(C)c2ccc(N3C(=O)c4cc5c(cc4C3=O)C3(CC(C)(C)c4cc6c(cc43)C(=O)N(*)C6=O)CC5(C)C)cc21 (repeat unit)
1.16 | 23.8 | 1.06 | 5.6 | 41.3 | *Oc1ccc(C2(c3ccc(OC(=O)c4cc(C(*)=O)cc(C(C)(C)C)c4)cc3)OC(=O)c3ccccc32)cc1 (repeat unit)
 |  |  | 0.07 | 1.89 | *c1nc2cc(-c3ccc4[nH]c(-c5cc(Br)c(*)cc5Br)nc4c3)ccc2[nH]1 (repeat unit)
35000 | 44200 | 16600 | 18700 | 36800 | *C(=C(*)c1ccc2c(c1)C(C)(C)CC2(C)C)c1ccc(F)c(F)c1 (repeat unit)
0.18 | 6.14 | 0.275 | 1.6 | 17.3 | *c1ccc(Oc2ccc(C(c3ccc(Oc4ccc(N5C(=O)c6ccc(-c7ccc8c(c7)C(=O)N(*)C8=O)cc6C5=O)cc4)cc3)(C(F)(F)F)C(F)(F)F)cc2)cc1 (repeat unit)
0.83 | 19 | 1.12 | 6.6 | 35 | *Oc1ccc(Oc2cccc(*)c2C#N)c(-c2cc(C(F)(F)F)cc(C(F)(F)F)c2)c1 (repeat unit)
 |  | 8.44 | 36.3 | 235 | *c1c(C)cc(C)c(-n2c(=O)c3cc4c(=O)n(*)c(=O)c4cc3c2=O)c1C (repeat unit)
0.06 | 3.5 | 0.17 | 0.94 | 9.6 | *Oc1ccc(Oc2cccc(*)c2C#N)c(-c2cc(C)cc(C)c2)c1 (repeat unit)
34 | 470 | 41 | 120 | 470 | *c1ccc(-c2ccc(C(*)(C(F)(F)F)C(F)(F)F)cc2)cc1 (repeat unit)
0.0364 | 1.6 | 0.0568 | 0.42 | 8.1 | *Oc1ccc(S(=O)(=O)c2ccc(Oc3cccc4c(*)cccc34)cc2)cc1 (repeat unit)
20.4 | 422 | 24.3 | 87.7 | 435 | *c1c(C)cc(C)c(N2C(=O)c3ccc(C(c4ccc5c(c4)C(=O)N(*)C5=O)(C(F)(F)F)C(F)(F)F)cc3C2=O)c1C (repeat unit)

SMILES | CH4 permeability [Barrer] | CO2 permeability [Barrer] | N2 permeability [Barrer] | O2 permeability [Barrer] | H2 permeability [Barrer]
*CC[Si](C)(C)c1ccc([Si](*)(C)C)cc1 (repeat unit) | 0.53 | 4.01 | 0.257 | 1.11 | 
*/C(C)=C(/*)[Si](C)(C)CCCC (repeat unit) | 17 | 100 | 8 | 29 | 65
*/C=C/C1CCC(*)C1 (repeat unit) | 2.5 | 15.4 | 1.5 | 2.8 | 21
*O[Si](*)(C)CCCCCC (repeat unit) |  |  | 103 | 236 | 
*CCC(F)(F)C(*)(F)F (repeat unit) |  | 1.98 | 0.182 | 0.532 | 
*CC(*)c1ccc(Cl)cc1 (repeat unit) | 0.26 | 4.3 | 0.23 | 1.2 | 
*CC(*)c1ccc(OC)cc1 (repeat unit) | 0.91 | 18.9 | 0.61 | 2.6 | 
*CC(*)OC(=O)c1ccc(C)cc1 (repeat unit) | 0.417 | 6.73 | 0.339 | 1.72 | 
*C1C2CC(CF)C(C2)C1* (repeat unit) | 13 | 200 | 17 | 50 | 166
